Assay [1] deals with PBMC from newly diagnosed / untreated CD children. As to conditions: Liu et al.; cited from earlier work.
Assay [2] relates to PBMC (polyclonal gluten-specific T cells) of paediatric and adult CD patients. As to conditions: corresponding adult data shown for comparison (14); cited from earlier work.
Assay [3] shares this test system. As to the kind of experiment: IFN-γ ELISpot of PBMC after 3 day oral wheat challenge (SFU, % of maximal peptide response, dominance scores, EC50; Examples 5-6). The assay is classed as cell-based, human. The following applies: for Dominance score 3-5yrs (n = 9): CD children 3-5yrs, n = 9, following wheat challenge; for Dominance score 3-5yrs (n = 9) / Dominance score 6-10yrs (n = 10) / Dominance score 11-18yrs (n = 11): mean percentage of maximal peptide response; for Dominance score 6-10yrs (n = 10): CD children 6-10yrs, n = 10, following wheat challenge; for Dominance score 11-18yrs (n = 11): CD children 11-18yrs, n = 11, following wheat challenge; for Dominance score Mean all ages: CD children, following wheat challenge (Table 9); for Dominance scores 3-5 yrs: children with celiac disease 3-5 yrs after wheat challenge (Table 14); for Dominance scores 6-10 yrs: children with celiac disease 6-10 yrs after wheat challenge (Table 14); for Dominance scores 11-18 yrs: children with celiac disease 11-18 yrs after wheat challenge (Table 14); for Dominance scores Mean all ages: mean of all subjects (Table 14); for IFN-γ ELISpot response: after oral wheat challenge.

These results are taken from patent publication US20170232083A1, “METHODS OF DIAGNOSIS AND TREATMENT OF CELIAC DISEASE IN CHILDREN” (priority 2014, published 2017).

For PFPQPELPY [DQ2.5-glia-α1a], the “individual CD children with responses” value in assay [1] is reported as 3/10.

As to PQPELPYPQ [DQ2.5-glia-α2], in assay [1], the “individual CD children with responses” value was 0/10.

Consider QPFPQPQQPIPVQ [Peptide W04], for which the “Dominance scores 18+ yrs” value in assay [2] is listed as 31. The “Dominance score 3-5yrs (n = 9)” value in assay [3] is 44.5. Besides, the “Dominance score 6-10yrs (n = 10)” value in assay [3] is 44.2. The “Dominance score 11-18yrs (n = 11)” value in assay [3] is 47.5. Moreover, in assay [3], the “Dominance score Mean all ages” value was 45.6. The “Dominance scores 3-5 yrs” value in assay [3] was found to be 43. In addition, the “Dominance scores 6-10 yrs” value in assay [3] came to 44. For the same substance, the “Dominance scores 11-18 yrs” value in assay [3] is on record as 48. In addition, the “Dominance scores Mean all ages” value in assay [3] stood at 45. Also, the “IFN-γ ELISpot response” value in assay [3] (patient A, 11-17 yrs, cut-off 10 SFU) is 1 SFU; in assay [3] (patient E, H, 11-17 yrs, cut-off 10 SFU), 51 SFU; in assay [3] (patient F, 11-17 yrs, cut-off 10 SFU), 40 SFU; in assay [3] (patient G, 11-17 yrs, cut-off 10 SFU) it was 4 SFU; in assay [3] (patient H (HLA-DQ2.5 homozygote), 3-5yrs, cut-off 10 SFU) it was 9 SFU; in assay [3] (patient H, 11-17 yrs, cut-off 10 SFU), 4 SFU. In addition, the “IFN-γ ELISpot response” value came to 65 SFU in assay [3] (patient ID not given, 11-17 yrs, cut-off 10 SFU); 5 SFU in assay [3] (patient N, 3-5yrs, cut-off 10 SFU); 21 SFU in assay [3] (patient P, 11-17 yrs, cut-off 21.6 SFU); 37 SFU in assay [3] (patient Q, 11-17 yrs, cut-off 10 SFU); 30 SFU in assay [3] (patient U, H, 11-17 yrs, cut-off 10 SFU); 11 SFU in assay [3] (patient V, 6-10 yrs, cut-off 10 SFU). Further, the “IFN-γ ELISpot response” value is recorded as 3 SFU in assay [3] (patient Y, 6-10 yrs, cut-off 10 SFU); 4 SFU in assay [3] (patient eleven, 6-10 yrs, cut-off 10 SFU); 9 SFU in assay [3] (patient four, 3-5yrs, cut-off 10 SFU); 13 SFU in assay [3] (patient seven, 6-10 yrs, cut-off 10.5 SFU); 9 SFU in assay [3] (patient ten, 3-5yrs, cut-off 10 SFU); 136 SFU in assay [3] (patient three, 6-10 yrs, cut-off 10.5 SFU). Also, the “IFN-γ ELISpot response” value came out at 12 SFU in assay [3] (patient twelve, 11-17 yrs, cut-off 10 SFU) and 17 SFU in assay [3] (patient two, 3-5yrs, cut-off 10 SFU). Also, the “Significant response as percentage of maximal peptide SFU” value is “′′ (21-40% = ′′)” in assay [3] (patient D, max peptide 30.5 SFU); “′′ (21-40% = ′′)” in assay [3] (patient E, max peptide 224 SFU); “′′ (21-40% = ′′)” in assay [3] (patient F, max peptide 178 SFU); “′′′ (41-70% = ′′′)” in assay [3] (patient ID not given, max peptide 95 SFU); “′′′ (41-70% = ′′′)” in assay [3] (patient J, max peptide 196 SFU); “′′ (21-40% = ′′)” in assay [3] (patient K, max peptide 53 SFU). Besides, the “Significant response as percentage of maximal peptide SFU” value in assay [3] (patient Q, max peptide 97 SFU) is listed as “′′ (21-40% = ′′)”; in assay [3] (patient U, max peptide 81 SFU), “′′ (21-40% = ′′)”; in assay [3] (patient V, max peptide 35 SFU) it was “′′ (21-40% = ′′)”; in assay [3] (patient five, max peptide 48 SFU), “+ (>70% = +)”; in assay [3] (patient seven, max peptide 27 SFU), “′′′ (41-70% = ′′′)”; in assay [3] (patient two, max peptide 60 SFU) it was “′′ (21-40% = ′′)”.

For W05 (QPFPQPEQPFSQQ) [Peptide W05], the “Dominance scores 18+ yrs” value in assay [2] is recorded as 15. Also, in assay [3], the “Dominance score 3-5yrs (n = 9)” value was determined as 23.4, the “Dominance score 6-10yrs (n = 10)” value was found to be 33.3, the “Dominance score 11-18yrs (n = 11)” value is on record as 27.1 and the “Dominance score Mean all ages” value was 28.6. In addition, in assay [3], the “Dominance scores 3-5 yrs” value stood at 23, the “Dominance scores 6-10 yrs” value is on record as 33, the “Dominance scores 11-18 yrs” value is given as 27 and the “Dominance scores Mean all ages” value is listed as 28.

Take W07 (QPFPQPEQPFCQQ) [Peptide W07]: the “Dominance scores 18+ yrs” value in assay [2] is 8. In assay [3], the “Dominance score 3-5yrs (n = 9)” value is given as 38.2, the “Dominance score 6-10yrs (n = 10)” value came to 20.5, the “Dominance score 11-18yrs (n = 11)” value is listed as 16.2 and the “Dominance score Mean all ages” value stood at 22.7. Also, in assay [3], the “Dominance scores 3-5 yrs” value came to 40, the “Dominance scores 6-10 yrs” value came to 20, the “Dominance scores 11-18 yrs” value is reported as 16 and the “Dominance scores Mean all ages” value was 24.

Consider W08 (LQPFPQPELPYSQP) [Peptide W08], for which the “Dominance scores 18+ yrs” value in assay [2] was 8. In assay [3], the “Dominance score 3-5yrs (n = 9)” value is recorded as 42.1, the “Dominance score 6-10yrs (n = 10)” value amounted to 51.7, the “Dominance score 11-18yrs (n = 11)” value is given as 40.2 and the “Dominance score Mean all ages” value came to 44.9. In assay [3], the “Dominance scores 3-5 yrs” value is 45, the “Dominance scores 6-10 yrs” value amounted to 52, the “Dominance scores 11-18 yrs” value is 40 and the “Dominance scores Mean all ages” value worked out at 45.

In the case of W13 (LQPFPQPELPYLQP) [Peptide W13], the “Dominance scores 18+ yrs” value in assay [2] was 4. Besides, in assay [3], the “Dominance score 3-5yrs (n = 9)” value is given as 29.3, the “Dominance score 6-10yrs (n = 10)” value is listed as 32.0, the “Dominance score 11-18yrs (n = 11)” value is 30.1 and the “Dominance score Mean all ages” value is recorded as 30.7. Further, in assay [3], the “Dominance scores 3-5 yrs” value worked out at 34, the “Dominance scores 6-10 yrs” value is given as 32, the “Dominance scores 11-18 yrs” value is listed as 30 and the “Dominance scores Mean all ages” value is recorded as 32.

On to W16 (FPQPEQEFPQPQQ) [Peptide W16], for which, in assay [2], the “Dominance scores 18+ yrs” value is 0. In assay [3], the “Dominance score 3-5yrs (n = 9)” value was found to be 19.8, the “Dominance score 6-10yrs (n = 10)” value is listed as 47.3, the “Dominance score 11-18yrs (n = 11)” value was 26.1 and the “Dominance score Mean all ages” value is listed as 32.6. Also, in assay [3], the “Dominance scores 3-5 yrs” value is 23, the “Dominance scores 6-10 yrs” value is on record as 47, the “Dominance scores 11-18 yrs” value was 26 and the “Dominance scores Mean all ages” value amounted to 33.

For W26 (PFPLQPEQPFPQP) [Peptide W26], in assay [2], the “Dominance scores 18+ yrs” value is given as 0. Moreover, in assay [3], the “Dominance score 3-5yrs (n = 9)” value is reported as 39.4, the “Dominance score 6-10yrs (n = 10)” value was determined as 61.6, the “Dominance score 11-18yrs (n = 11)” value came to 35.0 and the “Dominance score Mean all ages” value stood at 45.8. For the same substance, in assay [3], the “Dominance scores 3-5 yrs” value is recorded as 46, the “Dominance scores 6-10 yrs” value stood at 62, the “Dominance scores 11-18 yrs” value stood at 35 and the “Dominance scores Mean all ages” value was 47.

For the substance W32 (PFPEQPEQPFPQP) [Peptide W32], in assay [2], the “Dominance scores 18+ yrs” value is on record as 0. In assay [3], the “Dominance score 3-5yrs (n = 9)” value amounted to 26.9, the “Dominance score 6-10yrs (n = 10)” value came out at 34.4, the “Dominance score 11-18yrs (n = 11)” value is 28.2 and the “Dominance score Mean all ages” value turned out to be 30.2. Further, in assay [3], the “Dominance scores 3-5 yrs” value is recorded as 26, the “Dominance scores 6-10 yrs” value was 34, the “Dominance scores 11-18 yrs” value was 28 and the “Dominance scores Mean all ages” value stood at 30.
